System: GFP-expressing Zaire Ebolavirus Mayinga-GFP
Assay: microbe, parasite or virus in culture
Assay type: cell-based
Conditions: HeLa, read-out: Activity (Biological activity, EC50)

| SMILES | EC50 |
| --- | --- |
| Cc1cccc(/C=N/Nc2cc(N3CCOCC3)nc(OCc3ccccc3)n2)c1 [Compound 47, (E)-4-(2-(Benzyloxy)-6-(2-(3-methylbenzylidene)hydrazinyl)pyrimidin-4-yl)morpholine] | < 1000 nM |
| N#Cc1cccc(/C=N/Nc2cc(N3CCOCC3)nc(OCCc3ccccn3)n2)c1 [Compound 48, (E)-3-((2-(6-Morpholino-2-(2-(pyridin-2-yl)ethoxy)pyrimidin-4-yl)hydrazono)methyl)benzonitrile] | 1000 to 50000 nM |
| Cc1cccc(/C=N/Nc2cc(N3CCOCC3)nc(OC(C)c3ncccn3)n2)c1 (stereo not shown) [Compound 49, (E)-4-(6-(2-(3-Methylbenzylidene)hydrazinyl)-2-(1-(pyrimidin-2-yl)ethoxy)pyrimidin-4-yl)morpholine] | < 1000 nM |
| Cc1cccc(/C=N/Nc2cc(N3CCOCC3)nc(OCc3nccc(C)n3)n2)c1 [Compound 50, (E)-4-(6-(2-(3-Methylbenzylidene)hydrazinyl)-2-((4-methylpyrimidin-2-yl)methoxy)pyrimidin-4-yl)morpholine] | < 1000 nM |
| Cc1cccc(/C=N/Nc2cc(N3CCOCC3)nc(Oc3ccccc3)n2)c1 [Compound 51, (E)-4-(6-(2-(3-Methylbenzylidene)hydrazinyl)-2-phenoxypyrimidin-4-yl)morpholine] | < 1000 nM |
| Cc1cccc(/C=N/Nc2cc(N3CCOCC3)nc(OCc3ncc(Cl)cn3)n2)c1 [Compound 52, (E)-4-(2-((5-Chloropyrimidin-2-yl)methoxy)-6-(2-(3-methylbenzylidene)hydrazinyl)pyrimidin-4-yl)morpholine] | < 1000 nM |
| Cc1cccc(/C=N/Nc2cc(N3CCOCC3)nc(Oc3ccc4ccccc4c3)n2)c1 [Compound 53, (E)-4-(6-(2-(3-Methylbenzylidene)hydrazinyl)-2-(naphthalen-2-yloxy)pyrimidin-4-yl)morpholine] | < 1000 nM |
| Cc1cccc(/C=N/Nc2cc(N3CCOCC3)nc(OCc3nccc(C(F)(F)F)n3)n2)c1 [Compound 54, (E)-4-(6-(2-(3-Methylbenzylidene)hydrazinyl)-2-((4-(trifluoromethyl)pyrimidin-2-yl)methoxy)pyrimidin-4-yl)morpholine] | < 1000 nM |
| Cc1cccc(/C=N/Nc2cc(N3CCOCC3)nc(Oc3ccc4nc(Cl)ccc4c3)n2)c1 [Compound 55, (E)-4-(2-(2-Chloroquinolin-6-yloxy)-6-(2-(3-methylbenzylidene)hydrazinyl)pyrimidin-4-yl)morpholine] | < 1000 nM |
| Cc1ccc(/C=N/Nc2cc(N3CCOCC3)nc(OCCc3ccccn3)n2)cc1 [Compound 56, (E)-4-(6-(2-(4-Methylbenzylidene)hydrazinyl)-2-(2-(pyridin-2-yl)ethoxy)pyrimidin-4-yl)morpholine] | < 1000 nM |
| Cc1cccc(/C=N/Nc2cc(N3CCOCC3)nc(OCCc3ccc(N4CCOCC4)cn3)n2)c1 [Compound 57] | > 50000 nM |
| Cc1cnc(COc2nc(N/N=C/c3cccc(C)c3)cc(N3CCOCC3)n2)nc1 [Compound 58, (E)-4-(6-(2-(3-Methylbenzylidene)hydrazinyl)-2-((5-methylpyrimidin-2-yl)methoxy)pyrimidin-4-yl)morpholine] | < 1000 nM |
| Cc1cccc(/C=N/Nc2cc(N3CCOCC3)nc(OCc3nc(C)cc(C)n3)n2)c1 [Compound 59, (E)-4-(2-((4,6-Dimethylpyrimidin-2-yl)methoxy)-6-(2-(3-methylbenzylidene)hydrazinyl)pyrimidin-4-yl)morpholine] | < 1000 nM |
| COc1cnc(COc2nc(N/N=C/c3cccc(C)c3)cc(N3CCOCC3)n2)nc1 [Compound 60, (E)-4-(2-((5-Methoxypyrimidin-2-yl)methoxy)-6-(2-(3-methylbenzylidene)hydrazinyl)pyrimidin-4-yl)morpholine] | < 1000 nM |
| CS(=O)(=O)c1cccc(/C=N/Nc2cc(N3CCOCC3)nc(OCCc3ccccn3)n2)c1 [Compound 61, (E)-4-(6-(2-(3-(Methylsulfonyl)benzylidene)hydrazinyl)-2-(2-(pyridin-2-yl)ethoxy)pyrimidin-4-yl)morpholine] | > 50000 nM |
| Cc1cccc(/C=N/Nc2cc(N3CCOCC3)nc(Oc3ccc4nc(C)ccc4c3)n2)c1 [Compound 62, (E)-4-(6-(2-(3-Methylbenzylidene)hydrazinyl)-2-(2-methylquinolin-6-yloxy)pyrimidin-4-yl)morpholine] | < 1000 nM |
| Cc1cccc(/C=N/Nc2cc(N3CCOCC3)nc(Oc3ccc4nccc(Cl)c4c3)n2)c1 [Compound 63, (E)-4-(2-(4-Chloroquinolin-6-yloxy)-6-(2-(3-methylbenzylidene)hydrazinyl)pyrimidin-4-yl)morpholine] | < 1000 nM |
| Cc1cccc(/C=N/Nc2cc(N3CCOCC3)nc(OCc3nc4ccccc4c(=O)[nH]3)n2)c1 [Compound 64, (E)-2-((4-(2-(3-Methylbenzylidene)hydrazinyl)-6-morpholinopyrimidin-2-yloxy)methyl)quinazolin-4(3H)-one] | < 1000 nM |
| CCC(Oc1nc(N/N=C/c2cccc(C)c2)cc(N2CCOCC2)n1)c1ncccn1 (stereo not shown) [Compound 65, (E)-4-(6-(2-(3-Methylbenzylidene)hydrazinyl)-2-(1-(pyrimidin-2-yl)propoxy)pyrimidin-4-yl)morpholine] | < 1000 nM |
| Cc1cccc(/C=N/Nc2cc(N3CCOCC3)nc(Oc3ccc4ncc(Cl)cc4c3)n2)c1 [Compound 66, (E)-4-(2-(3-Chloroquinolin-6-yloxy)-6-(2-(3-methylbenzylidene)hydrazinyl)pyrimidin-4-yl)morpholine] | < 1000 nM |
| Cc1cccc(/C=N/Nc2cc(N3CCOCC3)nc(Oc3ccc4ncc(F)cc4c3)n2)c1 [Compound 67, (E)-4-(2-(3-Fluoroquinolin-6-yloxy)-6-(2-(3-methylbenzylidene)hydrazinyl)pyrimidin-4-yl)morpholine] | < 1000 nM |
| Cc1cccc(/C=N/Nc2cc(N3CCOCC3)nc(Oc3ccc4nccc(C)c4c3)n2)c1 [Compound 68, (E)-4-(6-(2-(3-Methylbenzylidene)hydrazinyl)-2-(4-methylquinolin-6-yloxy)pyrimidin-4-yl)morpholine] | < 1000 nM |
